Test results as given in patent US6358885B1, “Substituted phenylheterocyclic herbicides” (Mississippi State University, priority 1992, dated 2002).

How the values were obtained:
giant foxtail = assay: Test C preemergence/postemergence greenhouse plant response rating 0 to 100; type: in vivo, Setaria faberii; conditions: for Plant response rating, Giant foxtail: 0 to 100 scale
Summary of the method: (§1)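 Compounds in non-phytotoxic solvent applied preemergence to sandy loam one day after planting, postemergence at the 1–4 leaf stage, or to ~2.5 cm floodwater over silt loam.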

soybean = assay: as above; type: in vivo, Glycine max; conditions: for Plant response rating, Soybean: 0 to 100 scale
Summary of the method: as §1

barnyardgrass = assay: Test C flood test plant response rating 0 to 100; type: in vivo, Echinochloa crus-galli; conditions: for Plant response rating (0 to 100), Barnyardgrass: under POSTEMERGENCE head (flood test species); for Plant response rating, Barnyardgrass: flood test species listed under POSTEMERGENCE, 0 to 100 scale
Summary of the method: as §1

downy brome = assay: Test C preemergence/postemergence greenhouse plant response rating 0 to 100; type: in vivo, Bromus tectorum; conditions: for Plant response rating Downy Brome: 0 to 100 scale
Summary of the method: as §1

wild buckwheat = assay: Test B preemergence/postemergence greenhouse plant response rating 0 to 10; type: in vivo, Polygonum convolvulus; conditions: 0 to 10 scale
Summary of the method: (§2)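 Test chemicals were sprayed onto freshly planted seed and, concurrently, onto young plants between the one and four leaf stage. After a twelve- to sixteen-day greenhouse period, each species was visually compared with untreated controls.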

cotton = assay: Test C preemergence/postemergence greenhouse plant response rating 0 to 100; type: in vivo, Gossypium hirsutum; conditions: for Plant response rating, Cotton: 0 to 100 scale
Summary of the method: as §1

wild oat = assay: Test B preemergence/postemergence greenhouse plant response rating 0 to 10; type: in vivo, Avena fatua; conditions: 0 to 10 scale
Summary of the method: as §2

lambsquarters = assay: as above; type: in vivo, Chenopodium album; conditions: 0 to 10 scale
Summary of the method: as §2

purple nutsedge = assay: as above; type: in vivo, Cyperus rotundus; conditions: 0 to 10 scale
Summary of the method: as §2

## C#CCOc1cc(-c2nn3c(c2Br)CCCC3)c(F)cc1Cl [Compound 26]
Giant foxtail; POSTEMERGENCE, 62 g/ha
  Plant response rating, Giant foxtail: 50
Giant foxtail; POSTEMERGENCE, 250 g/ha
  Plant response rating, Giant foxtail: 70
Giant foxtail; POSTEMERGENCE, Rate 4 g/ha
  Plant response rating (0 to 100), Giant foxtail: 0
Giant foxtail; PREEMERGENCE, 62 g/ha
  Plant response rating, Giant foxtail: 70
Giant foxtail; PREEMERGENCE, 250 g/ha
  Plant response rating, Giant foxtail: 100
Giant foxtail; PREEMERGENCE, Rate 4 g/ha
  Plant response rating (0 to 100), Giant foxtail: 0
Giant foxtail; Rate 16 g/ha, POSTEMERGENCE
  Plant response rating (0 to 100), Giant foxtail: 40
Giant foxtail; Rate 16 g/ha, PREEMERGENCE
  Plant response rating (0 to 100), Giant foxtail: 30
soybean; POSTEMERGENCE, 62 g/ha
  Plant response rating, Soybean: 60
soybean; POSTEMERGENCE, 250 g/ha
  Plant response rating, Soybean: 60
soybean; POSTEMERGENCE, Rate 4 g/ha
  Plant response rating (0 to 100), Soybean: 20
soybean; PREEMERGENCE, 250 g/ha
  Plant response rating, Soybean: 100
soybean; PREEMERGENCE, Rate 4 g/ha
  Plant response rating (0 to 100), Soybean: 0
soybean; Rate 16 g/ha, POSTEMERGENCE
  Plant response rating (0 to 100), Soybean: 50
soybean; Rate 16 g/ha, PREEMERGENCE
  Plant response rating (0 to 100), Soybean: 0
barnyardgrass; Rate 4 g/ha
  Plant response rating (0 to 100), Barnyardgrass: 100
barnyardgrass; Rate 16 g/ha
  Plant response rating (0 to 100), Barnyardgrass: 100
barnyardgrass; 62 g/ha
  Plant response rating, Barnyardgrass: 100
barnyardgrass; 250 g/ha
  Plant response rating, Barnyardgrass: 100
Downy brome; POSTEMERGENCE, 62 g/ha
  Plant response rating Downy Brome: 50
Downy brome; POSTEMERGENCE, 250 g/ha
  Plant response rating Downy Brome: 70
Downy brome; POSTEMERGENCE, Rate 4 g/ha
  Plant response rating (0 to 100), Downy Brome: 20
Downy brome; PREEMERGENCE, 62 g/ha
  Plant response rating Downy Brome: 0
Downy brome; PREEMERGENCE, 250 g/ha
  Plant response rating Downy Brome: 20
Downy brome; PREEMERGENCE, Rate 4 g/ha
  Plant response rating (0 to 100), Downy Brome: 0
Downy brome; Rate 16 g/ha, POSTEMERGENCE
  Plant response rating (0 to 100), Downy Brome: 40
Downy brome; Rate 16 g/ha, PREEMERGENCE
  Plant response rating (0 to 100), Downy Brome: 0
Wild buckwheat; POSTEMERGENCE, Rate 50 g/ha
  Plant response rating, Wild buckwheat: 10
Wild buckwheat; POSTEMERGENCE, Rate 200 g/ha
  Plant response rating, Wild buckwheat: 10
Wild buckwheat; PREEMERGENCE, Rate 50 g/ha
  Plant response rating, Wild buckwheat: 7
Wild buckwheat; Rate 200 g/ha, PREEMERGENCE
  Plant response rating, Wild buckwheat: 10
cotton; POSTEMERGENCE, 62 g/ha
  Plant response rating, Cotton: 100
cotton; POSTEMERGENCE, 250 g/ha
  Plant response rating, Cotton: 100
cotton; POSTEMERGENCE, Rate 4 g/ha
  Plant response rating (0 to 100), Cotton: 100
cotton; PREEMERGENCE, 62 g/ha
  Plant response rating, Cotton: 0
cotton; PREEMERGENCE, 250 g/ha
  Plant response rating, Cotton: 100
cotton; PREEMERGENCE, Rate 4 g/ha
  Plant response rating (0 to 100), Cotton: 0
cotton; Rate 16 g/ha, POSTEMERGENCE
  Plant response rating (0 to 100), Cotton: 100
cotton; Rate 16 g/ha, PREEMERGENCE
  Plant response rating (0 to 100), Cotton: 0
Wild oat; POSTEMERGENCE, Rate 50 g/ha
  Plant response rating, Wild oat: 5
Wild oat; POSTEMERGENCE, Rate 200 g/ha
  Plant response rating, Wild oat: 7
Wild oat; Rate 200 g/ha, PREEMERGENCE
  Plant response rating, Wild oat: 6
lambsquarters; POSTEMERGENCE, Rate 50 g/ha
  Plant response rating, Lambsquarter: 10
lambsquarters; POSTEMERGENCE, Rate 200 g/ha
  Plant response rating, Lambsquarter: 10
lambsquarters; PREEMERGENCE, Rate 50 g/ha
  Plant response rating, Lambsquarter: 10
lambsquarters; Rate 200 g/ha, PREEMERGENCE
  Plant response rating, Lambsquarter: 10
Purple nutsedge; POSTEMERGENCE, Rate 200 g/ha
  Plant response rating, Nutsedge: 4
Purple nutsedge; PREEMERGENCE, Rate 50 g/ha
  Plant response rating, Nutsedge: 0
